In data set [1] the target is glycogen synthase kinase-3β (GSK-3β) (Homo sapiens, UniProt P49841). The conditions noted are these: cited from earlier work.
Data set [2] relates to intracranial U251 human glioma tumors. The text has this: However, TMZ-resistance has emerged as a significant unmet medical need, as DNA repair enzyme O^6-methylguanine DNA methyltransferase (MGMT) removes the methyl-group adducts caused by TMZ. […] We thus sought to investigate how our CSC and non-CSC panel would respond to VAL-083 alone or in combination with XRT. We further investigated the activity of VAL-083 in in vivo models of drug-resistant GBM in comparison to TMZ. Rag2 mice bearing intracranial human GBM xenograft tumors of either MGMT-positive and TMZ-resistant origin (BT74), or MGMT-negative and TMZ-sensitive origin (U251) were treated. VAL-083 was given i.p. 3 times/week×3 weeks, and the efficacy of VAL-083 in controlling tumor growth compared to TMZ (30 mg/kg). Disease progression was evaluated by overall survival, clinical observations and body weight measurements.
On study day 0 for each set of mice, 44 female Rag2 mice were inoculated intracranially in the right caudate-putamen nucleus (coordinates: ML-1.5 mm; AP 1 mm; DV −3.5 mm) with 7.5×10^4 U251 human glioma cells.

A further data set concerns GBM. Conditions: cited from earlier work.
Data set [3] has as its system progressive secondary brain tumor. The data set can be described thus: Phase I/II dose-escalation study: tumor response in progressive secondary brain tumor patients. The format is in vivo, human. Conditions: n = 6. The source says:
(2) There is evidence of leptomeningeal spread of disease.
Outcomes analysis of cohort 6 is ongoing.

Data set [4] is described as follows: Plasma pharmacokinetics in brain tumor patients after IV infusion (WinNonlin non-compartmental analysis). The format is in vivo, human. The conditions noted are these: for dose dependence of systemic exposure: dose escalation in patients. As to the method: Plasma drug concentration analysis data were analyzed using WinNonlin®, version 2.1A software (Pharsight Inc., Mountain View, Calif.) and Microsoft Office Excel 2007. Pharmacokinetic analysis was conducted by Dr. Sarath Kanekal, Ph.D. Use of MS Excel was limited to receipt of raw data, transfer into WinNonlin and generation of tables (Mean and SD) and graphs for the report.
The starting dose for Cohort #1 was 1.5 mg/m^2 IV daily×3 every 21 days. Cohorts 2 and 3 received DAG at doses of 3.0 and 5.0 mg/m^2 IV daily×3 every 21 days, respectively; cohort 4 received 10 mg/m^2. Dose escalation beyond 10 mg/m^2, up to 40 mg/m^2 IV daily×3 every 21 days is planned in the ongoing trial. Sample collection was on Day 1 at each dose level at the following time points: pre-dose, and 0.25, 0.5, 1, 2, 4, 6 h 15±5 minutes, 30±5 minutes, 60±10 minutes, 120±10 minutes, 240±15 minutes, and 360±15 minutes after the end of the IV study drug administration and immediately prior to Cycle 1, Day 2 of dosing. Drug concentration data was received from at least 3 patients for cohorts 1, 2 and 3, but only from 2 patients in cohort 4.
For the purposes of this interim analysis a fixed constant infusion time of 30 minutes and nominal collection time intervals were used for all patients. […] For the final PK analysis individual patient infusion time and exact collection time are used.
Pharmacokinetic analyses were performed on the plasma concentration versus time data using WinNonlin (Ver 2.1A) via non-compartmental analysis (NCA). A model for constant infusion (WinNonlin Model #202) was used for the analyses. Uniform weighting was used for all data. AUCall was calculated by the linear trapezoid rule and t1/2 of lambda z was used for estimating the terminal half-life. The last 2 or 3 concentrations above LLOQ were used for calculating lambda z. For clearance (CL) and Volume of Distribution (Vz), observed CL and observed Vz values outputted by WinNonlin are reported here. All plasma concentrations measurements reported as below the limit of quantitation (BLQ) was set equal to zero, and those reported as NS (no sample), if any, were left blank and treated as missing. Mean concentration and WinNonlin derived parameters are presented with standard deviation.

Data set [5] relates to cancer stem cells (BT74, GBM4 and GBM8). Conditions: BT74, GBM4 and GBM8, neurosphere growth assays; cited from earlier work.
The subject of data set [6] is normal human neural stem cells. Conditions: neurosphere growth assays; cited from earlier work.
For data set [7] the following is noted: human, in vivo.
Text: (§1) The study utilizes a 3+3 dose escalation design, until the MTD or the maximum specified dose is reached. […] In Phase II, additional patients will be treated at the MTD (or other selected optimum Phase II dose) to measure tumor responses. […] For these studies, the following is a summary of the inclusion criteria: (1) Patients must be greater than or equal to 18 years old. […] The following is a summary of the exclusion criteria: (1) There is a current history of neoplasm other than the entry diagnosis. Patients with previous cancers treated and cured with local therapy alone may be considered. (2) There is evidence of leptomeningeal spread of disease.
Open-label, single-arm Phase I/II dose-escalation study in patients with histologically-confirmed initial diagnosis of primary WHO Grade IV malignant glioma (glioblastoma). […] The study utilizes a 3+3 dose-escalation design.
Data set [8] relates to GBM cell lines SF188, U251, and T98G. The data set can be described thus: Inhibition of tumor cell growth in GBM cell lines (FIG. 1, FIG. 6). It counts as cell-based, human. Conditions: independent of MGMT.
Data set [9] relates to recurrent glioblastoma multiforme (GBM). The data set can be described thus: Phase I/II dose-escalation study: tumor response (RANO) in recurrent GBM patients.
Text: as §1
Higher doses may be enrolled subject to completion of mandated safety observation period with Cohort 6 (30 mg/m^2). Patients enrolled present with refractory progressive GBM and a dire prognosis. […] The primary endpoint of this portion of the study is to determine a modernized dosing regimen for advancement to registration-directed clinical trials. […] In this design, it is not possible to perform a rigorous assessment of patient benefit due to slowed tumor growth. Tumor volume is assessed during the study based on RANO criteria.
Open-label, single-arm Phase I/II dose-escalation study in patients with histologically-confirmed initial diagnosis of primary WHO Grade IV malignant glioma (glioblastoma). […] The study utilizes a 3+3 dose-escalation design. […] The RANO (Response Assessment in Neuro-Oncology) criteria divide responses into four general categories: complete response, partial response, stable disease, and regression.

SMILES strings stand for the structures. Like-named read-outs stand apart in the source and are kept apart here.

glycogen synthase kinase-3β (GSK-3β), sequence (P49841 whole entry, species assumed): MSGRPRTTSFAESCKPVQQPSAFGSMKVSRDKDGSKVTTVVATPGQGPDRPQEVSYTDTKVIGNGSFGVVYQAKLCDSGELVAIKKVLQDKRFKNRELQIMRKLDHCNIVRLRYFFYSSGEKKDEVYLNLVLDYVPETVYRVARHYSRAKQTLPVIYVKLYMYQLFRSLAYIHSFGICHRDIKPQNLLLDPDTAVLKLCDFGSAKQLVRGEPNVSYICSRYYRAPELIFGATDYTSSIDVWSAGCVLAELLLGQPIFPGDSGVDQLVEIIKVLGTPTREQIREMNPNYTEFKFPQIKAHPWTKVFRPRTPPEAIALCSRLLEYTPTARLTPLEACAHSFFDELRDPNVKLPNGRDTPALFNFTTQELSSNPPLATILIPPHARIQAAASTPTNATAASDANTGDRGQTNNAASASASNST

With `CN1C(=O)/C(=C2/C(=O)Nc3ccccc32)c2ccccc21` [meisoindigo], the “concentration for inhibition of GSK-3β” value in data set [1] is 5 to 50 nM.

In the case of `Cn1nnc2c(C(N)=O)ncn2c1=O` [temozolomide], in data set [2] (TMZ 30 mg/kg), the “day of termination at the end of the study” value came out at 102 days. Further, in the data set on GBM (GBM, historical data), the DLT result was “Hematologic”, the Nadir is 21 to 28 days and the Recovery entry was “Within 14 days”.

Regarding `O[C@H]([C@H](O)[C@@H]1CO1)[C@H]1CO1` [dianhydrogalactitol], the “Tumor Response, Overall” value in data set [3] came out at 17%; in [9] (GBM patients, n = 8) it was 25%. The “Tumor Response, type (number of patients)” value in [3] is “SD (1)”; in data set [9] (GBM patients, n = 8), “PR (1); SD”. Moreover, in data set [4] (10 mg/m^2), the “average Cmax” value was less than 200 ng/mL. The Cmax was 180 ng/mL in [4] (20 mg/m^2, average); 16.5 ng/mL in data set [4] (Cohort 1, 1.5 mg/m^2); 46.4 ng/mL in data set [4] (Cohort 2, 3 mg/m^2); 80.5 ng/mL in data set [4] (Cohort 3, 5 mg/m^2); 172.0 ng/mL in data set [4] (Cohort 4, 10 mg/m^2). For the same molecule, the AUC came out at 18.9 ng·h/mL in [4] (Cohort 1, 1.5 mg/m^2); 48.5 ng·h/mL in data set [4] (Cohort 2, 3 mg/m^2); 108.0 ng·h/mL in data set [4] (Cohort 3, 5 mg/m^2); 191.7 ng·h/mL in data set [4] (Cohort 4, 10 mg/m^2). The Tmax in data set [4] (Cohort 1, 1.5 mg/m^2) turned out to be 15 min; in data set [4] (Cohort 2, 3 mg/m^2) it was 15 min; in data set [4] (Cohort 3, 5 mg/m^2), 15 min; in data set [4] (Cohort 4, 10 mg/m^2), 15 min. Also, the t-½ in data set [4] (Cohort 1, 1.5 mg/m^2) stood at 2.02 h; in data set [4] (Cohort 2, 3 mg/m^2), 0.83 h; in [4] (Cohort 3, 5 mg/m^2), 1.27 h; in [4] (Cohort 4, 10 mg/m^2) it was 1.19 h. In addition, in [4] (all dose levels 1.5-10 mg/m^2), the “time of peak concentration after initiation of the intravenous infusion” value is 0.25. Further, the “time for plasma concentrations to return to near baseline after dosing” value in data set [4] (cohorts 1-4) was no more than 8 h. Besides, the “dose dependence of systemic exposure” value in data set [4] is listed as “dose-dependent linear systemic exposure”; in data set [4] (listed as DAG), “more than dose proportional increase in exposure”; in data set [4] (listed as Dianhydrogalactitol), “dose-dependent increase in exposure”; in data set [4] (listed as VAL-083), “dose-dependent linear systemic exposure”. This molecule also displayed a plasma half-life in data set [4] (patients, IV) of 60 to 120 min. Moreover, the plasma terminal half-life in data set [4] (patients, IV) was in the range of 60 to 120 min. For the same molecule, the “inhibition of growth of cancer stem cells” value in data set [5] is on record as 80-100%. Also, the “effect on normal human neural stem cells” value in [6] is recorded as “minimal effect”. Moreover, the “maximum tolerated dose (MTD), as 33 day cycle cumulative dose” value in data set [7] is greater than 120 mg/m^2. The median survival time in [2] (3 mg/kg i.p. 3 times/week x 3 weeks) was determined as 54 days; in [2] (4 mg/kg i.p. 3 times/week x 3 weeks) it was 72 days; in data set [2] (5 mg/kg i.p., 4 doses only) it was 57 days. Also, the Recovery entry in the data set with GBM (GBM, historical data) is “Within 7-8 days”. Further, the “efficacy in combination with radiation versus radiation alone” value in the data set with GBM (human, in vivo, iv) was “superior to radiation alone”. In addition, the DLT entry in the data set with GBM (human, in vivo) was “Hematologic”. Besides, the “Median O.S. (XRT + Chemo)” value with GBM (human, in vivo) was 67 weeks. In the data set with GBM (human, in vivo), the Nadir is 18 to 21 days. For the same molecule, the “Other Severe Toxicities Reported (>2%)” value in the data set with GBM (human, in vivo) is on record as “None”. In addition, in data set [8], the “inhibition of tumor (cell) growth compared with TMZ” value is “better than TMZ”. Also, the “tumor response in cohort 6” value in data set [9] (30 mg/m^2, after 1 cycle, one of two patients) was “exhibited stable disease”. For the same molecule, the “MRI scans, abnormal enhancement” value in data set [9] (Patient #26, T=0 vs T=64 days, after two cycles) is listed as “Thick confluent regions of abnormal enhancement have diminished”. The “patients exhibiting a response (stable disease or partial response)” value in data set [9] (early cohorts, Example 1) is recorded as “Two patients exhibiting a response”.

`O=NN(CCCl)C(=O)NCCCl` [Carmustine]: in the data set with GBM (GBM, historical data), the “Median O.S. (XRT + Chemo)” value is given as 40-50 weeks. In addition, in the data set with GBM (human, in vivo), the Nadir was 21 to 35 days.

For orientation: Cmax means the peak of the concentration-time curve. One may read the AUC as the area under the concentration-time curve, a measure of exposure. Read a low AUC as low exposure. What is called Tmax is the time from dosing to the highest level.
